Measured values as given in patent US10626109B2, “N-hetaryl(thio)carbonyl-2-(benzocycloalken-1-yl)cyclamines and their use as fungicides” (BAYER CROPSCIENCE AKTIENGESELLSCHAFT, priority 2013, dated 2020).
Read-outs that look alike come from different tables or passages of the source. Marks after values point to notes of the source that are not given here.

Key:
[1] = log P by HPLC on reversed-phase column (C 18), EEC Directive 79/831 Annex V.A8; format: physicochemical
Protocol: In table 1, the log P values were determined in accordance with EEC Directive 79/831 Annex V.A8 by HPLC (High Performance Liquid Chromatography) on a reversed-phase column (C 18), using the method described below: Temperature: 40° C.; Mobile phases: 0.1% aqueous formic acid and acetonitrile; linear gradient from 10% acetonitrile to 90% acetonitrile. Calibration was carried out using unbranched alkan-2-ones (comprising 3 to 16 carbon atoms) with known log P values (determination of the log P values by the retention times using linear interpolation between two successive alkanones). lambda-max-values were determined using UV-spectra from 200 nm to 400 nm and the peak values of the chromatographic signals. In table 2, M+H (Apcl+) and log P are defined as for table 1.

Puccinia recondita = test: In vivo preventive test on Puccinia recondita (brown rust on wheat); settings: for protection: in words, at a dose of 500 and 100 ppm of active ingredient, analogues 11 and 13 in very similar conditions
Protocol: [table] […] The young plants of wheat are treated by spraying the active ingredient prepared as described above. […] After 24 hours, the plants are contaminated by spraying the leaves with an aqueous suspension of Puccinia recondita spores. The contaminated wheat plants are incubated for 24 hours at 20° C. and at 100% relative humidity and then for 10 days at 20° C. and at 70-80% relative humidity. The test is evaluated 11 days after the inoculation. 0% means an efficacy which corresponds to that of the control plants while an efficacy of 100% means that no disease is observed.

Uromyces appendiculatus = test: In vivo preventive test on Uromyces appendiculatus (bean rust)
Protocol: [table] The active ingredients are made soluble and homogenized in a mixture of Dimethyl sulfoxide/Acetone//Tween® 80 and then diluted in water to the desired concentration. The young plants of bean are treated by spraying the active ingredient prepared as described above. Control plants are treated only with an aqueous solution of Acetone/Dimethyl sulfoxide/Tween® 80. After 24 hours, the plants are contaminated by spraying the leaves with an aqueous suspension of Uromyces appendiculatus spores. The contaminated bean plants are incubated for 24 hours at 20° C. and at 100% relative humidity and then for 10 days at 20° C. and at 70-80% relative humidity. The test is evaluated 11 days after the inoculation. 0% means an efficacy which corresponds to that of the control plants while an efficacy of 100% means that no disease is observed.

[2] = Table 1, HPLC, 0.1% aqueous formic acid and acetonitrile, 40° C., second value of a mixture of two diastereoisomers
[3] = Table 1, HPLC, 0.1% aqueous formic acid and acetonitrile, 40° C., single value, or first value of a mixture of two diastereoisomers

| SMILES | logP [1, 2] | logP [1, 3] | further results |
| --- | --- | --- | --- |
| Cn1nc(C(F)F)c(C(=O)N2CCCCC2C2CCc3ccccc32)c1F (mixture of isomers) [I.30] | 3.55 | 3.44 | – |
| Cc1cc(C(=O)N2CCCC2C2CCc3c(F)cccc32)c(C)o1 (single isomer, unassigned) [I.07] | – | 3.90 | – |
| Cn1cc(C(=O)N2CCCC2C2CCc3cc(F)cc(F)c32)c(C(F)(F)F)c1 (single isomer, unassigned) [I.40] | – | 3.70 | – |
| Cn1nc(C(F)F)c(C(=O)N2CCCC2C2CCc3c(F)cccc32)c1F (mixture of isomers) [I.03] | 3.35 | 3.31 | – |
| Cc1cc(C(=O)N2CCCC2C2CCc3c(F)cccc32)c(C)o1 (single isomer, unassigned) [I.06] | – | 3.74 | – |
| Cn1cc(C(=O)N2CCCC2C2CCc3cc(F)ccc32)c(C(F)F)n1 (mixture of isomers) [I.17] | 3.00 | 2.84 | – |
| Cn1cc(C(=O)N2CCCC2C2CCc3cc(F)cc(F)c32)c(C(F)F)n1 (stereo not drawn) [I.11] | – | 2.96 | – |
| Cn1nc(C(F)F)c(C(=O)N2CCCC2C2CCc3cc(F)ccc32)c1F (mixture of isomers) [I.18] | 3.37 | 3.29 | – |
| c1ccc2c(c1)CCCCC2C1CCCCN1 (stereo not drawn) [IIa.03, 2-(6,7,8,9-tetrahydro-5H-benzo[7]annulen-5-yl)piperidine] | – | – | chromatographic logP ([1]; logP): 1.31 |
| Cc1nc(C(F)F)c(C(=O)N2CCCC2C2CCc3cc(F)cc(F)c32)s1 (single isomer, unassigned) [I.38] | – | 3.55 | – |
| Cc1nc(C(F)F)c(C(=O)N2CCCC2C2CCc3cc(F)cc(F)c32)s1 (single isomer, unassigned) [I.37] | – | 3.52 | – |
| Cn1nc(C(F)F)c(C(=O)N2CCCCC2C2CCCc3ccccc32)c1F (stereo not drawn) [I.31] | – | 3.67 | Efficacy (Puccinia recondita; Table C1, dose 100 ppm, wheat): 64%; Efficacy (Puccinia recondita; Table C1, dose 500 ppm, wheat): 93%; protection (Puccinia recondita; wheat): excellent (at least 90%) to average (at least 60%) protection |
| Cn1cc(C(=O)N2CCCCC2C2CCOc3ccccc32)c(C(F)F)n1 (mixture of isomers) [I.35] | 2.90 | 2.46 | – |
| Cn1cc(C(=O)N2CCCC2C2CCc3ccc(Cl)cc32)c(C(F)F)n1 (mixture of isomers) [I.19] | 3.27 | 3.19 | – |
| Cn1nc(C(F)F)c(C(=O)N2CCCC2C2CCc3cc(Cl)cc(Cl)c32)c1F (stereo not drawn) [I.10] | – | 4.14 | – |
| Cn1nc(C(=O)N2CCCC2C2CCc3cc(F)cc(F)c32)c(C(F)F)n1 (single isomer, unassigned) [I.14, [2-(5,7-difluoro-2,3-dihydro-1H-inden-1-yl)pyrrolidin-1-yl][5-(difluoromethyl)-2-methyl-2H-1,2,3-triazol-4-yl]methanone] | – | – | chromatographic logP ([1]; reversed-phase HPLC column (C 18), Table 1, HPLC, 0.1% aqueous formic acid and acetonitrile, 40° C., single value, or first value of a mixture of two diastereoisomers, read-out: logP): 3.41 |
| Cn1cc(C(=O)N2CCCCC2C2CCCCc3ccccc32)c(C(F)F)n1 (mixture of isomers) [I.33] | 3.68 | 3.50 | – |
| CCC(c1ccccc1)C1CCCN1C(=O)c1c(C(F)F)nn(C)c1F (stereo not drawn) [53 from WO2012/052491, [3-(difluoromethyl)-5-fluoro-1-methyl-1H-pyrazol-4-yl][2-(1-phenylpropyl)pyrrolidin-1-yl]methanone, reference compound] | – | – | Efficacy (Uromyces appendiculatus; Table G1, dose 100 ppm): 0%; Efficacy (Uromyces appendiculatus; Table G1, dose 500 ppm): 77%; protection (Uromyces appendiculatus; in words, at a dose of 500 and 100 ppm of active ingredient): good (at least 70%) to no protection |
| Cn1cc(C(=O)N2CCCCC2C2CCCc3ccccc32)c(C(F)F)n1 (stereo not drawn) [I.32] | – | 3.17 | – |
| Cn1cc(C(=O)N2CCCC2C2CCc3ccc(C(C)(C)C)cc32)c(C(F)F)n1 (stereo not drawn) [I.22] | – | 4.16 | – |
| Cn1nc(C(F)F)c(C(=O)N2CCCC2C2CCc3ccc(C(C)(C)C)cc32)c1Cl (stereo not drawn) [I.23] | – | 4.82 | – |
| c1ccc2c(c1)CCCC2C1CCCCN1 (stereo not drawn) [IIa.02, 2-(1,2,3,4-tetrahydronaphthalen-1-yl)piperidine] | – | – | chromatographic logP ([1]; logP): 1.21 |
| Cn1cc(C(=O)N2CCCC2C2CCc3c(F)cccc32)c(C(F)F)n1 (mixture of isomers) [I.01] | 2.98 | 2.88 | – |

| SMILES | logP [1, 2] | logP [1, 3] | further results |
| --- | --- | --- | --- |
| O=C(c1ccsc1Br)N1CCCC1C1CCc2c(F)cccc21 (single isomer, unassigned) [I.04] | – | 3.87 | – |
| Cn1nc(C(F)F)c(C(=O)N2CCCC2C2CCc3c(F)cccc32)c1Cl (stereo not drawn) [I.02] | – | 3.48 | – |
| Cn1nc(C(=O)N2CCCC2C2CCc3cc(F)cc(F)c32)c(C(F)F)n1 (single isomer, unassigned) [I.15, [2-(5,7-difluoro-2,3-dihydro-1H-inden-1-yl)pyrrolidin-1-yl][5-(difluoromethyl)-2-methyl-2H-1,2,3-triazol-4-yl]methanone] | – | – | chromatographic logP ([1]; reversed-phase HPLC column (C 18), separated diastereoisomers, preparation Example 1, read-out: log P): 3.63 |
| Cn1nc(C(F)F)c(C(=O)N2CCCCC2C2CCOc3ccccc32)c1F (mixture of isomers) [I.36] | 3.27 | 2.86 | – |
| Cn1nc(C(F)F)c(C(=O)N2CCCC2C2CCc3cc(F)ccc32)c1Cl (stereo not drawn) [I.16] | – | 3.50 | – |
| Cn1cc(C(=O)N2CCCCC2C2CCc3ccccc32)c(C(F)F)n1 (mixture of isomers) [I.29] | 3.13 | 2.96 | – |
| Cn1cc(C(=O)N2CCCC2C2CCc3cc(Cl)cc(Cl)c32)c(C(F)F)n1 (stereo not drawn) [I.08] | – | 3.61 | – |
| c1ccc2c(c1)CCC2C1CCCCN1 (stereo not drawn) [IIa.01, 2-(2,3-dihydro-1H-inden-1-yl)piperidine] | – | – | chromatographic logP ([1]; logP): 0.52 |
| Cn1nc(C(F)F)c(C(=S)N2CCCC2C2CCc3c(F)cccc32)c1F (stereo not drawn) [I.41] | – | 4.01 | – |
| c1ccc2c(c1)OCCC2C1CCCCN1 (stereo not drawn) [IIa.04, 2-(3,4-dihydro-2H-chromen-4-yl)piperidine] | – | – | chromatographic logP ([1]; reversed-phase HPLC column (C 18), Table 2, compounds of formula (IIa), HPLC as for table 1, read-out: logP): 0.82 |
| Cn1nc(C(F)F)c(C(=O)N2CCCC2C2CCCc3ccccc32)c1Cl (mixture of isomers) [I.25] | 3.79 | 3.68 | – |
| Cn1nc(C(F)F)c(C(=O)N(CCc2ccccc2)C2CC2)c1F [11 from WO-2011/151369, N-cyclopropyl-3-(difluoromethyl)-5-fluoro-1-methyl-N-(2-phenylethyl)-1H-pyrazole-4-carboxamide] | – | – | Efficacy (Puccinia recondita; Table C2, dose 100 ppm, formulated in DMF with 2% of alkylarylpolyglycolether): 0 ^(a) %; Efficacy (Puccinia recondita; Table C2, dose 500 ppm, formulated in DMF with 2% of alkylarylpolyglycolether): 10 ^(a) %; protection (Puccinia recondita; wheat): poor (less than 40%) to no protection |
| CCC(c1ccccc1)C1CCCCN1C(=O)c1c(C(F)F)nn(C)c1F (stereo not drawn) [136 from WO-2012/052489, [3-(difluoromethyl)-5-fluoro-1-methyl-1H-pyrazol-4-yl][2-(1-phenylpropyl)piperidin-1-yl]methanone] | – | – | Efficacy (Puccinia recondita; Table C1, dose 100 ppm, wheat): 50%; Efficacy (Puccinia recondita; Table C1, dose 500 ppm, wheat): 65%; protection (Puccinia recondita; wheat): average protection |
| Cn1cc(C(=O)N2CCCC2C2CCc3cc(F)cc(F)c32)c(C(F)(F)F)c1 (single isomer, unassigned) [I.39] | – | 3.68 | – |
| Cn1nc(C(F)F)c(C(=O)N2CCCC2C2CCc3cc(F)cc(F)c32)c1F (mixture of isomers) [I.13] | 3.41 | 3.35 | – |
| Cn1nc(C(F)F)c(C(=S)N2CCCC2C2CCCc3ccccc32)c1Cl (mixture of isomers) [I.28] | 4.77 | 4.56 | – |
| Cn1nc(C(F)F)c(C(=O)N2CCCC2C2CCc3ccc(Cl)cc32)c1F (mixture of isomers) [I.21] | 3.70 | 3.68 | – |
| O=C(c1ccsc1Br)N1CCCC1C1CCc2c(F)cccc21 (single isomer, unassigned) [I.05] | – | 3.96 | – |
| Cn1nc(C(F)F)c(C(=O)N2CCCC2C2CCc3cc(Cl)cc(Cl)c32)c1Cl (mixture of isomers) [I.09] | 4.41 | 4.34 | – |
| Cn1nc(C(F)F)c(C(=O)N2CCCCC2C2CCCCc3ccccc32)c1F (mixture of isomers) [I.34] | 4.15 | 3.96 | – |
| Cn1nc(C(F)F)c(C(=O)N2CCCC2C2CCc3ccc(Cl)cc32)c1Cl (mixture of isomers) [I.20] | 3.92 | 3.87 | – |
| Cn1nc(C(F)F)c(C(=O)N2CCCC2C2CCc3cc(F)cc(F)c32)c1Cl (mixture of isomers) [I.12] | 3.59 | 3.55 | – |
